This is an account of results in publication PMC3088504 (Bioorganic & medicinal chemistry, 2009).

The assay has as its target H1 receptor (Homo sapiens, UniProt P35367). Put plainly: H1 competitive radioligand binding assay. The note with it: H1 versus 5-HT2A, from Ki values.

H1 receptor, sequence (P35367 whole entry): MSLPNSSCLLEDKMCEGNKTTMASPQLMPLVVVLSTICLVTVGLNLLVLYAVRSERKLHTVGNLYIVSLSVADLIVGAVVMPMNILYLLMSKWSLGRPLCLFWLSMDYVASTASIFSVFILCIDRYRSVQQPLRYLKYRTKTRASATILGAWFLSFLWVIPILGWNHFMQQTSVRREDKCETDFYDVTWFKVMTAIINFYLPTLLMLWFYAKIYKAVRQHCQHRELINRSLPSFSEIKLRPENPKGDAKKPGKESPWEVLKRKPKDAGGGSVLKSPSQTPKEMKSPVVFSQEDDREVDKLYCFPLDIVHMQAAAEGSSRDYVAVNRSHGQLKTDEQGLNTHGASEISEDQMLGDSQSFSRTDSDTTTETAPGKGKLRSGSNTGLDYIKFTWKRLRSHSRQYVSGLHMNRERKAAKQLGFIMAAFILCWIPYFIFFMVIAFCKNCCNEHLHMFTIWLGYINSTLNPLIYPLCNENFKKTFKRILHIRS

Take `CN(C)CCCC1c2ccccc2Cc2ccccc21` [Compound 3c]: the “selectivity for the H1 receptor” value was found to be 44 fold.
